The assay in a line: Binding affinity to alpha3beta1 integrin receptor in human MDA-MB-231 cells assessed as inhibition of cell binding to immobilized LXY1 peptide by cell adherence assay. In kind it is cell-based.

Turning to `NC(=O)C[C@@H]1NC(=O)[C@@H]2C[C@@H](O)CN2C(=O)CNC(=O)[C@H](c2ccc(F)cc2)NC(=O)CNC(=O)[C@@H](CC(=O)O)NC(=O)[C@H](N)CSSC[C@H](C(N)=O)NC1=O`, the IC50 is 23.7 µM.

As for `CCCCCCN(CCCCCC)[C@@H]1CSSC[C@H](C(N)=O)NC(=O)[C@H](CC(N)=O)NC(=O)[C@@H]2C[C@@H](O)CN2C(=O)CNC(=O)[C@H](Cc2ccc(O)c([N+](=O)[O-])c2)NC(=O)CNC(=O)[C@@H](CC(=O)O)NC1=O`, the IC50 was over 25 µM.

Regarding `CCCCNC(=O)N[C@@H]1CSSC[C@H](C(N)=O)NC(=O)[C@H](CC(N)=O)NC(=O)[C@@H]2C[C@@H](O)CN2C(=O)CNC(=O)[C@H](Cc2ccc(O)c([N+](=O)[O-])c2)NC(=O)CNC(=O)[C@@H](CC(=O)O)NC1=O`, the IC50 was over 25 µM.

For the molecule `NC(=O)C[C@@H]1NC(=O)[C@@H]2C[C@@H](O)CN2C(=O)CNC(=O)[C@H](Cc2ccc(O)c([N+](=O)[O-])c2)NC(=O)CNC(=O)[C@@H](CC(=O)O)NC(=O)[C@H](N)CNC(=O)C[C@H](C(N)=O)NC1=O`, the IC50 was over 25 µM.

For the molecule `NC(=O)C[C@@H]1NC(=O)[C@@H]2C[C@@H](O)CN2C(=O)CNC(=O)[C@@H]2CCCCN2C(=O)CNC(=O)[C@@H](CC(=O)O)NC(=O)[C@H](N)CSSC[C@H](C(N)=O)NC1=O`, the IC50 is 24.1 µM.

For the molecule `CCCCCCN[C@@H]1CSSC[C@H](C(N)=O)NC(=O)[C@H](CC(N)=O)NC(=O)[C@@H]2C[C@@H](O)CN2C(=O)CNC(=O)[C@H](Cc2ccc(O)c([N+](=O)[O-])c2)NC(=O)CNC(=O)[C@@H](CC(=O)O)NC1=O`, the IC50 was over 25 µM.

Take `NC(=O)C[C@@H]1NC(=O)[C@@H]2C[C@@H](O)CN2C(=O)CNC(=O)[C@H](Cc2ccc(O)c([N+](=O)[O-])c2)NC(=O)CNC(=O)[C@@H](CC(=O)O)NC(=O)[C@@H](N)CCCCNC1=O`: the IC50 is over 25 µM.

As to `NC(=O)C[C@@H]1NC(=O)[C@@H]2C[C@@H](O)CN2C(=O)CNC(=O)[C@H](Cc2ccc(O)c([N+](=O)[O-])c2)NC(=O)CNC(=O)[C@@H](CC(=O)O)NC(=O)[C@H](NC(=O)Nc2ccc([N+](=O)[O-])cc2)CSSC[C@H](C(N)=O)NC1=O`, the IC50 was over 25 µM.

Turning to `NC(=O)C[C@@H]1NC(=O)[C@@H]2C[C@@H](O)CN2C(=O)CNC(=O)[C@H](Cc2ccc(O)c([N+](=O)[O-])c2)NC(=O)CNC(=O)[C@@H](CC(=O)O)NC(=O)[C@H](NCC2CCCCC2)CSSC[C@H](C(N)=O)NC1=O`, the IC50 is over 25 µM.

With `NC(=O)C[C@@H]1NC(=O)[C@@H]2C[C@@H](O)CN2C(=O)CNC(=O)[C@H](Cc2ccc(O)c([N+](=O)[O-])c2)NC(=O)CNC(=O)[C@@H](CC(=O)O)NC(=O)[C@H](NC(=O)NC2CCCCC2)CSSC[C@H](C(N)=O)NC1=O`, the IC50 is over 25 µM.

Consider `NC(=O)C[C@@H]1NC(=O)[C@@H]2C[C@@H](O)CN2C(=O)CNC(=O)[C@H](Cc2ccc(O)c([N+](=O)[O-])c2)NC(=O)CNC(=O)[C@@H](CC(=O)O)NC(=O)[C@H](NCc2ccc(-c3ccccc3)cc2)CSSC[C@H](C(N)=O)NC1=O`, for which the IC50 is over 25 µM.

Take `CN(C)c1ccc(CN[C@@H]2CSSC[C@H](C(N)=O)NC(=O)[C@H](CC(N)=O)NC(=O)[C@@H]3C[C@@H](O)CN3C(=O)CNC(=O)[C@H](Cc3ccc(O)c([N+](=O)[O-])c3)NC(=O)CNC(=O)[C@@H](CC(=O)O)NC2=O)cc1`: the IC50 was over 25 µM.

With `NC(=O)C[C@@H]1NC(=O)[C@@H]2C[C@@H](O)CN2C(=O)CNC(=O)[C@H](CCc2ccc(O)cc2)NC(=O)CNC(=O)[C@@H](CC(=O)O)NC(=O)[C@H](N)CSSC[C@H](C(N)=O)NC1=O`, the IC50 was over 25 µM.

As to `NC(=O)C[C@@H]1NC(=O)[C@@H]2C[C@@H](O)CN2C(=O)CNC(=O)[C@H](Cc2ccc(O)c([N+](=O)[O-])c2)NC(=O)CNC(=O)[C@@H](CC(=O)O)NC(=O)[C@H](NC(=O)Nc2ccc(C(F)(F)F)cc2)CSSC[C@H](C(N)=O)NC1=O`, the IC50 was over 25 µM.

For the molecule `NC(=O)C[C@@H]1NC(=O)[C@@H]2C[C@@H](O)CN2C(=O)CNC(=O)[C@H](Cc2ccc(O)c([N+](=O)[O-])c2)NC(=O)CNC(=O)[C@@H](CC(=O)O)NC(=O)[C@H](NC(=O)Nc2ccc(Cl)cc2)CSSC[C@H](C(N)=O)NC1=O`, the IC50 is over 25 µM.

In the case of `NC(=O)C[C@@H]1NC(=O)[C@@H]2C[C@@H](O)CN2C(=O)CNC(=O)[C@@H]2CCN2C(=O)CNC(=O)[C@@H](CC(=O)O)NC(=O)[C@H](N)CSSC[C@H](C(N)=O)NC1=O`, the IC50 worked out at 21.4 µM.

Turning to `NC(=O)C[C@@H]1NC(=O)[C@@H]2C[C@@H](O)CN2C(=O)CNC(=O)[C@H](Cc2ccc(O)c([N+](=O)[O-])c2)NC(=O)CNC(=O)[C@@H](CC(=O)O)NC(=O)[C@H](NC(=O)Nc2ccccc2)CSSC[C@H](C(N)=O)NC1=O`, the IC50 is over 25 µM.

As for `NC(=O)C[C@@H]1NC(=O)[C@@H]2C[C@@H](O)CN2C(=O)CNC(=O)[C@H](c2c(F)c(F)c(F)c(F)c2F)NC(=O)CNC(=O)[C@@H](CC(=O)O)NC(=O)[C@H](N)CSSC[C@H](C(N)=O)NC1=O`, the IC50 came to 11.7 µM.

As to `NC(=O)C[C@@H]1NC(=O)[C@@H]2C[C@@H](O)CN2C(=O)CNC(=O)[C@H](Cc2ccc(O)c([N+](=O)[O-])c2)NC(=O)CNC(=O)[C@@H](CC(=O)O)NC(=O)[C@H](N)C/C=C/C[C@H](C(N)=O)NC1=O`, the IC50 was over 25 µM.

On to `NC(=O)C[C@@H]1NC(=O)[C@@H]2C[C@@H](O)CN2C(=O)CNC(=O)[C@H](c2cccc([N+](=O)[O-])c2)NC(=O)CNC(=O)[C@@H](CC(=O)O)NC(=O)[C@H](N)CSSC[C@H](C(N)=O)NC1=O`, for which the IC50 is 3.1 µM.

Take `COc1cc(C[C@@H]2NC(=O)CNC(=O)[C@@H](CC(=O)O)NC(=O)[C@H](N)CSSC[C@H](C(N)=O)NC(=O)[C@H](CC(N)=O)NC(=O)[C@@H]3C[C@@H](O)CN3C(=O)CNC2=O)ccc1O`: the IC50 was over 25 µM.

In the case of `NC(=O)C[C@@H]1NC(=O)[C@@H]2C[C@@H](O)CN2C(=O)CNC(=O)[C@H](c2cccc(F)c2)NC(=O)CNC(=O)[C@@H](CC(=O)O)NC(=O)[C@H](N)CSSC[C@H](C(N)=O)NC1=O`, the IC50 was determined as 11.3 µM.

With `NC(=O)C[C@@H]1NC(=O)[C@@H]2C[C@@H](O)CN2C(=O)CNC(=O)[C@H](Cc2ccc(O)c([N+](=O)[O-])c2)NC(=O)CNC(=O)[C@@H](CC(=O)O)NC(=O)[C@H](NCc2cccnc2)CSSC[C@H](C(N)=O)NC1=O`, the IC50 was over 25 µM.

Consider `CC(C)CN[C@@H]1CSSC[C@H](C(N)=O)NC(=O)[C@H](CC(N)=O)NC(=O)[C@@H]2C[C@@H](O)CN2C(=O)CNC(=O)[C@H](Cc2ccc(O)c([N+](=O)[O-])c2)NC(=O)CNC(=O)[C@@H](CC(=O)O)NC1=O`, for which the IC50 was over 25 µM.

Consider `CC1(C)SSC(C)(C)[C@H](C(N)=O)NC(=O)[C@H](CC(N)=O)NC(=O)[C@@H]2C[C@@H](O)CN2C(=O)CNC(=O)[C@H](Cc2ccc(O)c([N+](=O)[O-])c2)NC(=O)CNC(=O)[C@@H](CC(=O)O)NC(=O)[C@@H]1N`, for which the IC50 was over 25 µM.

As to `NC(=O)C[C@@H]1NC(=O)[C@@H]2C[C@@H](O)CN2C(=O)CNC(=O)[C@H](c2cccc(C(F)(F)F)c2)NC(=O)CNC(=O)[C@@H](CC(=O)O)NC(=O)[C@H](N)CSSC[C@H](C(N)=O)NC1=O`, the IC50 is 11.9 µM.

Take `CC(C)NC(=O)N[C@@H]1CSSC[C@H](C(N)=O)NC(=O)[C@H](CC(N)=O)NC(=O)[C@@H]2C[C@@H](O)CN2C(=O)CNC(=O)[C@H](Cc2ccc(O)c([N+](=O)[O-])c2)NC(=O)CNC(=O)[C@@H](CC(=O)O)NC1=O`: the half-inhibitory concentration (IC50) was over 25 µM.

Consider `N#Cc1cccc([C@@H]2NC(=O)CNC(=O)[C@@H](CC(=O)O)NC(=O)[C@H](N)CSSC[C@H](C(N)=O)NC(=O)[C@H](CC(N)=O)NC(=O)[C@@H]3C[C@@H](O)CN3C(=O)CNC2=O)c1`, for which the IC50 was over 25 µM.

Consider `NC(=O)C[C@@H]1NC(=O)[C@@H]2C[C@@H](O)CN2C(=O)CNC(=O)[C@H](c2ccc(C(F)(F)F)cc2)NC(=O)CNC(=O)[C@@H](CC(=O)O)NC(=O)[C@H](N)CSSC[C@H](C(N)=O)NC1=O`, for which the IC50 was over 25 µM.

On to `NC(=O)C[C@@H]1NC(=O)[C@@H]2C[C@@H](O)CN2C(=O)CNC(=O)[C@@H]2C=CCN2C(=O)CNC(=O)[C@@H](CC(=O)O)NC(=O)[C@H](N)CSSC[C@H](C(N)=O)NC1=O`, for which the IC50 came out at 15.3 µM.

With `NCC[C@@H]1NC(=O)[C@@H]2C[C@@H](O)CN2C(=O)CNC(=O)[C@H](Cc2ccc(O)c([N+](=O)[O-])c2)NC(=O)CNC(=O)[C@@H](CC(=O)O)NC(=O)[C@H](N)CSSC[C@H](C(N)=O)NC1=O`, the IC50 was determined as 13.6 µM.

As for `NC(=O)C[C@@H]1NC(=O)[C@@H]2C[C@@H](O)CN2C(=O)CNC(=O)[C@H](Cc2ccc(O)c([N+](=O)[O-])c2)NC(=O)CNC(=O)[C@@H](CC(=O)O)NC(=O)[C@H](NC(=O)CCc2ccccc2)CSSC[C@H](C(N)=O)NC1=O`, the IC50 is over 25 µM.

Regarding `NC(=O)[C@H]1CSSC[C@@H](N)C(=O)N[C@H](CC(=O)O)C(=O)NCC(=O)N[C@@H](Cc2ccc(O)c([N+](=O)[O-])c2)C(=O)NCC(=O)N2C[C@H](O)C[C@H]2C(=O)N[C@@H](CC(=O)O)C(=O)N1`, the IC50 turned out to be 17.1 µM.

For the molecule `NC(=O)C[C@@H]1NC(=O)[C@@H]2C[C@@H](O)CN2C(=O)CNC(=O)[C@H](c2ccc(F)c(F)c2)NC(=O)CNC(=O)[C@@H](CC(=O)O)NC(=O)[C@H](N)CSSC[C@H](C(N)=O)NC1=O`, the IC50 is 6.3 µM.

Regarding `NC(=O)C[C@@H]1NC(=O)[C@@H]2C[C@@H](O)CN2C(=O)CNC(=O)[C@H](Cc2ccc(O)c([N+](=O)[O-])c2)NC(=O)CNC(=O)[C@@H](CC(=O)O)NC(=O)[C@H](NC(=O)Nc2ccc(-c3ccccc3)cc2)CSSC[C@H](C(N)=O)NC1=O`, the IC50 was over 25 µM.

`NC(=O)C[C@@H]1NC(=O)[C@@H]2C[C@@H](O)CN2C(=O)CNC(=O)[C@H](Cc2ccc(O)c([N+](=O)[O-])c2)NC(=O)CNC(=O)[C@@H](CC(=O)O)NC(=O)[C@H](NCc2ccc(F)c(F)c2)CSSC[C@H](C(N)=O)NC1=O`: the IC50 is over 25 µM.

Turning to `COC(=O)c1ccc(NC(=O)N[C@@H]2CSSC[C@H](C(N)=O)NC(=O)[C@H](CC(N)=O)NC(=O)[C@@H]3C[C@@H](O)CN3C(=O)CNC(=O)[C@H](Cc3ccc(O)c([N+](=O)[O-])c3)NC(=O)CNC(=O)[C@@H](CC(=O)O)NC2=O)cc1`, the concentration for half-maximal inhibition (IC50) was over 25 µM.

As usually defined, the IC50 is the concentration at which inhibition is half-maximal.

Values taken from ChEMBL document CHEMBL1154627, “Structure-activity relationship studies of targeting ligands against breast cancer cells” (J Med Chem, 2009).
